# In patent US7029857B1, “Processes for obtaining compounds employing SNORF72 receptors” (H. Lundbeck A/S, priority 1999, dated 2006):
# No end group written: not given here.
# Columns and labels:
# SNORF62 = target: T1, SNORF62 (Homo sapiens, UniProt Q9HB89); experiment: Intracellular Ca2+ release (FLIPR) in SNORF62-transfected COS-7 cells; assay type: cell-based; parameters: The SNORF62 cDNA codes for a protein of 426 amino acids; expressed in transfected cells; host or cells: COS-7 (transient, DEAE-dextran)
# T1 sequence (Q9HB89 1-426): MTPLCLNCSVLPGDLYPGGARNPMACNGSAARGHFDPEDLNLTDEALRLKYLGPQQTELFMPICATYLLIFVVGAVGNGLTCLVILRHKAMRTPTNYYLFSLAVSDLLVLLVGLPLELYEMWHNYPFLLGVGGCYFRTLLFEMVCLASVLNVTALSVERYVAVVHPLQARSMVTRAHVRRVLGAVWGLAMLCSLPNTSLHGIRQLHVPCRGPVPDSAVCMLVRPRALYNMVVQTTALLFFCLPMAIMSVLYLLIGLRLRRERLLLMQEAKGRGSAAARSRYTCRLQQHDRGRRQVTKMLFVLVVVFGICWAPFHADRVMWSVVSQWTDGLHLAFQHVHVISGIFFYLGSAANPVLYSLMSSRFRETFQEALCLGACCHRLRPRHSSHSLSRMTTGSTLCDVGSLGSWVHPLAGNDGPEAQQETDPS
# control oocytes = experiment: Cl- currents in control oocytes lacking injection of foreign mRNA; assay type: cell-based, Xenopus laevis
# Description: In the present invention, oocytes were harvested from Xenopus laevis and injected with mRNA transcripts as previously described (Quick and Lester, 1994; Smith et al., 1997). SNORF62 mRNA transcript was synthesized using the T7 polymerase (“Message Machine”, Ambion) from linearized plasmids or PCR products containing the complete coding region of the gene. Oocytes were injected with 1–50 ng synthetic receptor RNA and incubated for 3–8 days at 17° C. Currents were recorded under dual electrode voltage clamp (Axon Instruments Inc.) with 3 M KCl-filled glass microelectrodes having resistances of 1–2 Mohm. Unless otherwise specified, oocytes were voltage clamped at a holding potential of −80 mV. During recordings, oocytes were bathed in continuously flowing (1–3 mL/min) medium containing 96 mM NaCl, 2 mM KCl, 1.8 mM CaCl2, 1 mM MgCl2, and 5 mM HEPES, pH 7.5 (ND96). Drugs were applied either by local perfusion from a 10 μL glass capillary tube fixed at a distance of 0.5 mm from the oocyte, or by switching from a series of gravity fed perfusion lines.
substance,measurement,setting,value
"FRVDEEFQSPFASQSRGYFLFRPRN-NH2 [human NMU-25, FRVDEEFQSPFASQSRGYFLFRPRN—NH2]",Ca2+ release response following pretreatment with pertussis toxin,"SNORF62; pertussis toxin 100 ng/ml for 18-20 hours, n=2, data not shown",present
same,EC50,"SNORF62; stimulation of Ca2+ release, SNORF62-transfected COS-7 cells, n = 2-7 (Table 1A)",4 ± 1.3 nM
same,response in control oocytes,control oocytes,no response
